Results: ChEMBL document CHEMBL4651402, “Screening of ~5500 FDA-approved drugs and clinical candidates for anti-SARS-CoV-2 activity” (2021)
Structures can show the parent of a compound that is named as a salt.

Tested on: SARS-CoV-2
Test: microbe, parasite or virus in culture
Details: Severe acute respiratory syndrome coronavirus 2, Vero C1008, 48 h

SMILES | IC50 [µM] | IC50 (read-out: pIC50 (converted)) [µM]
CC(C)=CCC/C(C)=C/CC1=C(C)C(=O)c2ccccc2C1=O [MENAQUINONE-2] | > 20 | > 20
CC(C)NCC(O)c1ccc2ccccc2c1 (configuration not stated) [PRONETALOL] | > 20 | > 20
CC(=O)OCC1=C(C(=O)O)N2C(=O)C(NC(=O)CSc3ccncc3)C2SC1 (configuration not stated) | > 20 | > 20
CC[N+](C)(C)c1cccc(O)c1 [EDROPHONIUM] | > 20 | > 20
CC12C=CC(=O)C=C1CCC1C2CCC2(C)C1CC[C@]2(C)O (some centres not stated) | > 20 | > 20
CC(C)[C@H](N)C(=O)O[C@@H]1[C@@H](CO)O[C@@H](n2ccc(N)nc2=O)[C@]1(C)O [VALOPICITABINE] | > 20 | > 20
CC(C)OC(=O)[C@H](C)NP(=O)(OC[C@H]1O[C@@H](n2ccc(=O)[nH]c2=O)[C@](C)(Cl)[C@@H]1O)Oc1ccccc1 (some centres not stated) | > 20 | > 20
CC(=O)OC[C@@]1(O)C[C@@]23CC[C@@H]4c5ccoc5CC[C@@]4(C)[C@@H]2CC[C@H]1C3 | > 20 | > 20
Nc1c2c(nc3ccccc13)CCCC2O (configuration not stated) [VELNACRINE] | > 20 | > 20
CCCc1cc2c(O)c(C(=O)OC)cnc2cc1N(CC)CC [AMQUINATE] | > 20 | > 20
CCCCn1ccc(N2CCC(c3ccccc3)CC2)c(Cl)c1=O [JNJ-40411813] | > 20 | > 20
C[C@]12CCC(=NOCCN)C[C@@H]1C(=O)C[C@@H]1[C@@H]2CC[C@]2(C)C(=O)CC[C@@H]12 [ISTAROXIME] | > 20 | > 20
NC(=O)NNc1ccccc1 [PHENICARBAZIDE] | > 20 | > 20
N#CCNC(=O)c1ccc(-c2ccnc(Nc3ccc(N4CCOCC4)cc3)n2)cc1 [MOMELOTINIB] | > 20 | > 20
Nc1nccc2c1ncn2C1OC(CO)C(O)C1O (configuration not stated) | > 20 | > 20
CCN(CC)C(=O)N1CCN(C)CC1 [DIETHYLCARBAMAZINE] | > 20 | > 20
Cn1nnnc1SCC1=C(C(=O)O)N2C(=O)[C@@H](NC(=O)[C@H](O)c3ccccc3)[C@H]2SC1 [CEFAMANDOLE] | > 20 | > 20
COc1ccc(C2C(=O)c3ccccc3C2=O)cc1 [ANISINDIONE] | > 20 | > 20
O=C(O)/C=C/c1ccc(Cn2ccnc2)cc1 [OZAGREL] | > 20 | > 20
Cc1onc(-c2c(F)cccc2Cl)c1C(=O)N[C@@H]1C(=O)N2[C@@H]1SC(C)(C)[C@@H]2C(=O)O [FLOXACILLIN] | > 20 | > 20
CC[C@H](CC[C@@H](C)[C@H]1CC[C@H]2[C@@H]3CC=C4C[C@@H](O)CC[C@]4(C)[C@H]3CC[C@]12C)C(C)C [BETA-SITOSTEROL] | > 20 | > 20
Nc1cc(C(F)(F)F)c(-c2nc(N3CCOCC3)nc(N3CCOCC3)n2)cn1 [BIMIRALISIB] | > 20 | > 20
O=C1NCCN1CCN1CCN([C@@H]2C[C@@H](c3ccc(F)cc3)c3ccccc32)CC1 [IRINDALONE] | > 20 | > 20
O=C(Nc1cccc(C2=NCCN2)c1)Nc1cccc(C2=NCCN2)c1 [IMIDOCARB] | > 20 | > 20

SMILES | IC50 [µM] | IC50 (read-out: pIC50 (converted)) [µM]
O=S(=O)(O)CCS [2-MERCAPTOETHANESULFONIC ACID] | > 20 | > 20
COc1cc2nccc(Oc3ccc(NC(=O)NC4CC4)c(Cl)c3)c2cc1C(N)=O [LENVATINIB] | > 20 | > 20
CC(C)(C)NC(=O)N[C@H](C(=O)N1C[C@H]2[C@@H]([C@H]1C(=O)NC(CC1CCC1)C(=O)C(N)=O)C2(C)C)C(C)(C)C (some centres not stated) [BOCEPREVIR] | > 20 | > 20
CC(=O)OCC(=O)[C@@]12N=C(C)O[C@@H]1C[C@H]1[C@@H]3CCC4=CC(=O)C=C[C@]4(C)[C@H]3[C@@H](O)C[C@@]12C [DEFLAZACORT] | > 20 | > 20
CNCC(=O)O [SARCOSINE] | > 20 | > 20
COC(=O)/C=C/C(=O)OCCN1C(=O)CCC1=O [DIROXIMEL FUMARATE] | > 20 | > 20
O=C(O)C1=CC(=C(c2ccc(O)c(C(=O)O)c2)c2ccc(O)c(C(=O)O)c2)C=CC1=O [AURINTRICARBOXYLIC ACID] | > 20 | > 20
CC(=O)O[C@]1(C(C)=O)CC[C@H]2[C@@H]3C=C(Cl)C4=CC(=O)CC[C@]4(C)[C@H]3CC[C@@]21C [CHLORMADINONE ACETATE] | > 20 | > 20
C/C=C1/[C@H](O[C@@H]2O[C@H](CO)[C@@H](O)[C@H](O)[C@H]2O)OC=C(C(=O)OC)[C@H]1CC(=O)OCCc1ccc(O)c(O)c1 [OLEUROPEIN] | > 20 | > 20
CN1CC[C@]23c4c5ccc(O)c4O[C@H]2C(=O)C=C[C@@]3(O)C1C5 | > 20 | > 20
CC(C)(Oc1ccc(C2CC2(Cl)Cl)cc1)C(=O)O (configuration not stated) [CIPROFIBRATE] | > 20 | > 20
CCC(C)(C)/N=C(\NC#N)Nc1cccnc1 | > 20 | > 20
CCNCC(O)c1cccc(O)c1 (configuration not stated) [ETILEFRINE] | > 20 | > 20
Cc1nccc2c1[nH]c1ccccc12 [HARMAN] | > 20 | > 20
CCOC(=O)[C@H](CCc1ccccc1)N[C@@H](C)C(=O)N1[C@H](C(=O)O)C[C@@H]2CCC[C@@H]21 | > 20 | > 20
C[N+]1(C)C[C@H](O)C[C@H]1C(=O)O | > 20 | > 20
CN[C@@H]1[C@H](O[C@H]2[C@H](O[C@H]3[C@H](O)[C@@H](O)[C@H](N=C(N)N)[C@@H](O)[C@@H]3N=C(N)N)O[C@@H](C)[C@]2(O)C=O)O[C@@H](CO)[C@H](O)[C@H]1O [STREPTOMYCIN] | > 20 | > 20
Cc1cn(C2CC(N=[N+]=[N-])C(CO)O2)c(=O)nc1N (configuration not stated) | > 20 | > 20
CC[C@]12C=CCN3CCC4(c5ccc(OC)cc5N(C)[C@H]4[C@](O)(C(=O)OC)[C@@H]1OC(C)=O)C32 (some centres not stated) | > 20 | > 20
C[C@@H](N)C(=O)N[C@@H](Cc1ccccc1)C(=O)O | > 20 | > 20
Cc1nc2ccc(-n3ncc(C(=O)c4cc5ccccc5[nH]4)c3N)cc2[nH]1 [FGFR INHIBITOR DEBIO 1347] | > 20 | > 20
OCc1ccccn1 [PICONOL] | > 20 | > 20
CCN(C/C=C\c1ccc(C2CCCCC2)c(Cl)c1)C1CCCCC1 | > 20 | > 20
O=[N+]([O-])/C(Br)=C\c1ccc(Br)o1 | > 20 | > 20

SMILES | IC50 [µM] | IC50 (read-out: pIC50 (converted)) [µM]
Cc1c(-c2cnccn2)ssc1=S [OLTIPRAZ] | > 20 | > 20
CC(CCC(=O)O)C1CCC2C3C(=O)CC4CC(=O)CCC4(C)C3CC(=O)C12C (configuration not stated) | > 20 | > 20
CC1=CCCC2C1(C)CCC(C)C2(C)Cc1cc(O)ccc1O (configuration not stated) | > 20 | > 20
CN1c2ccccc2Sc2ccc(CC(=O)O)cc21 [METIAZINIC ACID] | > 20 | > 20
COc1cc([C@@H]2c3cc4c(cc3[C@@H](O[C@@H]3O[C@@H]5CO[C@@H](c6cccs6)O[C@H]5[C@H](O)[C@H]3O)[C@H]3COC(=O)[C@H]23)OCO4)cc(OC)c1O [TENIPOSIDE] | > 20 | > 20
CCOC(=O)C(CCN1CCOCC1)(c1ccccc1)c1ccccc1 [DIOXAPHETYL BUTYRATE] | > 20 | > 20
COc1ccc(-c2nc(C(F)(F)F)sc2-c2ccc(OC)cc2)cc1 [ITAZIGREL] | > 20 | > 20
O=c1cc[nH]c(=O)[nH]1 [URACIL] | > 20 | > 20
CC(C)(CO)C(=O)SCCOP(=O)(NCc1ccccc1)OC[C@H]1O[C@@H](n2cnc3c(=O)[nH]c(N)nc32)[C@](C)(O)[C@@H]1O (some centres not stated) | > 20 | > 20
COc1ccc(-c2ccc(=O)n(Cc3ccc(Cl)cc3F)c2)cc1 | > 20 | > 20
O=C(Cn1ccnc1[N+](=O)[O-])NCCO [ETANIDAZOLE] | > 20 | > 20
c1ccc2c(c1)CCc1cccc3c1C2CN1CCCCC31 (configuration not stated) [TACLAMINE] | > 20 | > 20
CO[C@H]1[C@H](O)[C@H](O[C@H]2CC[C@@]3(C=O)[C@H](CC[C@@H]4[C@@H]3CC[C@]3(C)[C@@H](C5=CC(=O)OC5)CC[C@]43O)C2)O[C@@H](C)[C@@H]1O [PERUVOSIDE] | > 20 | > 20
O=C(O)c1ccccc1O [SALICYLIC ACID] | > 20 | > 20
C#CCN[C@@H]1CCc2ccccc21 [RASAGILINE] | > 20 | > 20
Oc1ccc(Cl)c2cccnc12 [CLOXYQUIN] | > 20 | > 20
C[C@]12COC(=O)C[C@@H]1CC[C@@H]1[C@@H]2CC[C@@]2(C)[C@H]1CC[C@]2(C)O [OXANDROLONE] | > 20 | > 20
CCOC(=O)C1=CCCC[C@@H]1S(=O)(=O)Nc1ccc(F)cc1Cl | > 20 | > 20
COC(=O)[C@H](Cc1ccccc1)NC(=O)[C@@H](N)CC(=O)O | > 20 | > 20
O[C@@H](COc1cccc2ncccc12)CN1CCN([C@@H]2c3ccccc3[C@@H]3[C@H](c4ccccc42)C3(F)F)CC1 [ZOSUQUIDAR] | > 20 | > 20
CC(C(=O)O)c1cccc(C(=O)c2ccccc2)c1 (configuration not stated) [KETOPROFEN] | > 20 | > 20
CC(=O)SC[C@@H](C)C(=O)N1CCC[C@H]1C(=O)N[C@@H](Cc1ccccc1)C(=O)O | > 20 | > 20
CCn1cc(C(=O)O)c(=O)c2cc(F)c(N3CCNC(C)C3)c(F)c21 (configuration not stated) [LOMEFLOXACIN] | > 20 | > 20
